Results as given in US20140128402A1, “PHARMACEUTICAL COMBINATION” (IPCA Laboratories Limited, priority 2011, published 2014).

Experiments:
Assay type in all cases: in vivo, Wistar rats
[1] = tested on: STZ-induced diabetic rats; test: Study No 1: biochemical parameters in STZ-induced diabetic rats; conditions: after 21 days
Procedure: (§1) In this experiment 48 Wistar rats weighing 130-150 g of either sex were divided randomly into 8 groups consisting of 6 rats each. The study drugs suspended in vehicle [0.1% w/v suspension of Tween 80 and carboxymethylcellulose (CMC) in water] were administered for orally for 21 days. Group 1 (normal vehicle control) consisted of normal rats that neither received streptozotocin nor any test drug; Group 2 served as streptozotocin induced diabetic control (Diabetes was induced in rats by single administration of streptozotocin (60 mg/kg/i.p) dissolved in 0.1 M-citrate buffer, pH 4.5). Forty-eight hours later, blood samples were collected and glucose levels were determined to confirm the development of diabetes. […] Group 3 was diabetic rats treated with dose equivalent to human therapeutic dose of sitagliptin (STG) (11 mg/kg); Group 4 was diabetic rats treated with dose equivalent to human therapeutic dose of Hydroxychloroquine (HCQ) (46 mg/kg), Group 5 was diabetic rats treated with combination of HCQ 46 mg/kg and STG11 mg/kg; […] For other biochemical parameters i.e. […] Other parameters like body weight, food intake and water intake were evaluated weekly till day 21st.

[2] = tested on: STZ-induced diabetic rats; test: Study No 1: body weight, food intake and water intake in STZ-induced diabetic rats; conditions: for AVERAGE WATER INTAKE: oral
Procedure: as §1

[3] = tested on: STZ-induced diabetic rats; test: Study No 1: blood glucose in STZ-induced diabetic rats (HCQ with sitagliptin)
Procedure: In this experiment 48 Wistar rats weighing 130-150 g of either sex were divided randomly into 8 groups consisting of 6 rats each. The study drugs suspended in vehicle [0.1% w/v suspension of Tween 80 and carboxymethylcellulose (CMC) in water] were administered for orally for 21 days. Group 1 (normal vehicle control) consisted of normal rats that neither received streptozotocin nor any test drug; Group 2 served as streptozotocin induced diabetic control (Diabetes was induced in rats by single administration of streptozotocin (60 mg/kg/i.p) dissolved in 0.1 M-citrate buffer, pH 4.5). Forty-eight hours later, blood samples were collected and glucose levels were determined to confirm the development of diabetes.
Blood glucose level was measured in normal and experimental rats at 1st, 7th, 14th and 21st day of administration. For other biochemical parameters i.e. Insulin, HbA1c, Triglycerides, Total Cholesterol, HDL, SGOT, SGPT, Total Protein, Albumin, Creatinine and Urea Blood samples were collected 1 h after the last dose administration from 18 h fasted rats through the retro-orbital plexus under chloroform anesthesia and analyzed using autoanalyzer (Microlab 2000). Other parameters like body weight, food intake and water intake were evaluated weekly till day 21st.

[4] = subtherapeutic dose: STG 5.5, HCQ 23, STG+HCQ 5.5+23 mg/kg/day oral
[5] = therapeutic dose: STG 11, HCQ 46, STG+HCQ 11+46 mg/kg/day oral

Question: For `N[C@@H](CC(=O)N1CCn2c(nnc2C(F)(F)F)C1)Cc1cc(F)c(F)cc1F` [STG, Sitagliptin], which Albumin [1, 4] is on record?
Answer: 2.20 g/dL

Question: And the Creatinine [1, 4]?
Answer: 1.76

Question: And the HDL-C [1, 4]?
Answer: 23.92 mg/dL

Question: What about the HbA1c [1, 4] of the same compound?
Answer: 5.12

Question: What about the “Insulin (serum)” value [1, 4] of the same compound?
Answer: 4.43

Question: And the SGOT [1, 4]?
Answer: 54.02

Question: And the SGPT [1, 4]?
Answer: 54.64

Question: And the TC [1, 4]?
Answer: 156.69 mg/dL

Question: What about the TG [1, 4] of the same compound?
Answer: 121.91 mg/dL

Question: What about the Total Protein [1, 4] of the same compound?
Answer: 4.15 g/dL

Question: What about the Urea [1, 4] of the same compound?
Answer: 45.05 mg/dL

Question: And the Albumin [1, 5]?
Answer: 2.63 g/dL

Question: And the Creatinine [1, 5]?
Answer: 1.63

Question: What about the HDL-C [1, 5] of the same compound?
Answer: 26.04 mg/dL

Question: What about the HbA1c [1, 5] of the same compound?
Answer: 5.04

Question: What about the “Insulin (serum)” value [1, 5] of the same compound?
Answer: 6.11

Question: What about the SGOT [1, 5] of the same compound?
Answer: 51.47

Question: And the SGPT [1, 5]?
Answer: 55.47

Question: What about the TC [1, 5] of the same compound?
Answer: 146.92 mg/dL

Question: And the TG [1, 5]?
Answer: 116.48 mg/dL

Question: What about the Total Protein [1, 5] of the same compound?
Answer: 4.83 g/dL

Question: What about the Urea [1, 5] of the same compound?
Answer: 23.57 mg/dL

Question: And the “AVERAGE WATER INTAKE” value ([2]; Day 1, Sub-The (subtherapeutic dose))?
Answer: 28.33 mL

Question: What about the “AVERAGE WATER INTAKE” value ([2]; Day 1, The (therapeutic dose)) of the same compound?
Answer: 30.67 mL

Question: What about the Body Weight ([2]; Day 1, subtherapeutic dose: STG 5.5, HCQ 23, STG+HCQ 5.5+23 mg/kg oral) of the same compound?
Answer: 145.83 ± 12.61 g

Question: And the “AVERAGE FOOD INTAKE” value ([2]; Day 1, subtherapeutic dose: STG 5.5, HCQ 23, combination 5.5+23 mg/kg oral)?
Answer: 11.50 g

Question: What about the Body Weight ([2]; Day 1, therapeutic dose: STG 11, HCQ 46, STG+HCQ 11+46 mg/kg oral) of the same compound?
Answer: 137.83 ± 6.49 g

Question: What about the “AVERAGE FOOD INTAKE” value ([2]; Day 1, therapeutic dose: STG 11, HCQ 46, combination 11+46 mg/kg oral) of the same compound?
Answer: 12.17 g

Question: And the “AVERAGE WATER INTAKE” value ([2]; Day 7, Sub-The (subtherapeutic dose))?
Answer: 27.17 mL

Question: And the “AVERAGE WATER INTAKE” value ([2]; Day 7, The (therapeutic dose))?
Answer: 29.00 mL

Question: What about the Body Weight ([2]; Day 7, subtherapeutic dose: STG 5.5, HCQ 23, STG+HCQ 5.5+23 mg/kg oral) of the same compound?
Answer: 147.83 ± 12.37 g

Question: What about the “AVERAGE FOOD INTAKE” value ([2]; Day 7, subtherapeutic dose: STG 5.5, HCQ 23, combination 5.5+23 mg/kg oral) of the same compound?
Answer: 11.83 g

Question: What about the Body Weight ([2]; Day 7, therapeutic dose: STG 11, HCQ 46, STG+HCQ 11+46 mg/kg oral) of the same compound?
Answer: 142.67 ± 7.45 g

Question: What about the “AVERAGE FOOD INTAKE” value ([2]; Day 7, therapeutic dose: STG 11, HCQ 46, combination 11+46 mg/kg oral) of the same compound?
Answer: 10.67 g

Question: And the “AVERAGE WATER INTAKE” value ([2]; Day 14, Sub-The (subtherapeutic dose))?
Answer: 26.67 mL

Question: And the “AVERAGE WATER INTAKE” value ([2]; Day 14, The (therapeutic dose))?
Answer: 28.50 mL

Question: And the Body Weight ([2]; Day 14, subtherapeutic dose: STG 5.5, HCQ 23, STG+HCQ 5.5+23 mg/kg oral)?
Answer: 150.50 ± 12.31 g

Question: And the “AVERAGE FOOD INTAKE” value ([2]; Day 14, subtherapeutic dose: STG 5.5, HCQ 23, combination 5.5+23 mg/kg oral)?
Answer: 10.83 g

Question: What about the Body Weight ([2]; Day 14, therapeutic dose: STG 11, HCQ 46, STG+HCQ 11+46 mg/kg oral) of the same compound?
Answer: 149.00 ± 7.46 g

Question: What about the “AVERAGE FOOD INTAKE” value ([2]; Day 14, therapeutic dose: STG 11, HCQ 46, combination 11+46 mg/kg oral) of the same compound?
Answer: 9.83 g

Question: What about the “AVERAGE WATER INTAKE” value ([2]; Day 21, Sub-The (subtherapeutic dose)) of the same compound?
Answer: 27.00 mL

Question: What about the “AVERAGE WATER INTAKE” value ([2]; Day 21, The (therapeutic dose)) of the same compound?
Answer: 27.17 mL

Question: What about the “AVERAGE FOOD INTAKE” value ([2]; Day 21, subtherapeutic dose: STG 5.5, HCQ 23, combination 5.5+23 mg/kg oral) of the same compound?
Answer: 10.33 g

Question: And the “AVERAGE FOOD INTAKE” value ([2]; Day 21, therapeutic dose: STG 11, HCQ 46, combination 11+46 mg/kg oral)?
Answer: 8.83 g

Question: And the Plasma glucose concentration ([3]; 1st day, subtherapeutic dose: STG 5.5, HCQ 23, STG+HCQ 5.5+23 mg/kg oral)?
Answer: 267.17 ± 12.83 mg/dL

Question: And the Plasma glucose concentration ([3]; 1st day, therapeutic dose: STG 11, HCQ 46, STG+HCQ 11+46 mg/kg oral)?
Answer: 258.33 ± 11.57 mg/dL

Question: What about the Plasma glucose concentration ([3]; 7th day, subtherapeutic dose: STG 5.5, HCQ 23, STG+HCQ 5.5+23 mg/kg oral) of the same compound?
Answer: 261.83 ± 11.58 mg/dL

Question: What about the Plasma glucose concentration ([3]; 7th day, therapeutic dose: STG 11, HCQ 46, STG+HCQ 11+46 mg/kg oral) of the same compound?
Answer: 225.00 ± 12.63 mg/dL

Question: And the Plasma glucose concentration ([3]; 14th day, subtherapeutic dose: STG 5.5, HCQ 23, STG+HCQ 5.5+23 mg/kg oral)?
Answer: 227.83 ± 13.95 mg/dL

Question: What about the Plasma glucose concentration ([3]; 14th day, therapeutic dose: STG 11, HCQ 46, STG+HCQ 11+46 mg/kg oral, 46 mg/kg) of the same compound?
Answer: 206.17 ± 10.26 mg/dL

Question: And the Plasma glucose concentration ([3]; 14th day, therapeutic dose: STG 11, HCQ 46, STG+HCQ 11+46 mg/kg oral, listed as sitagliptin, 46 mg/kg)?
Answer: significant improvement

Question: What about the Plasma glucose concentration ([3]; 21st day, subtherapeutic dose: STG 5.5, HCQ 23, STG+HCQ 5.5+23 mg/kg oral) of the same compound?
Answer: 200.83 ± 4.71 mg/dL

Question: And the Plasma glucose concentration ([3]; 21st day, therapeutic dose: STG 11, HCQ 46, STG+HCQ 11+46 mg/kg oral)?
Answer: 156.50 ± 12.85 mg/dL
